# Target: T1, K-Ras G12C (Homo sapiens, UniProt P01116, G12C)
# T1 construct: This protein contained 188 amino acids in total, including an N-terminal 6-Histidine tag; made in house; host or cells: E. coli BL21
# Assay: CAF assay (% CAF; method in Example 7, not in this part)
# Format: binding
# Settings: 10 uM compound, 1 h incubation
row,Structure (SMILES),"% CAF @ 10 uM, 1h [%]"
1,"C=CC(=O)N1CCN(c2nc(=O)n3c4c(c(-c5cc(Cl)c(F)cc5F)c(Cl)cc24)SC[C@@H]3CN2CCC3(CC2)COC3)[C@@H](C)C1 (atropisomer, axis not shown) [Example 482, (3S,10S)-3-((2-oxa-7-azaspiro[3.5]nonan-7-yl)methyl)-7-((S)-4-acryloyl-2-methylpiperazin-1-yl)-9-chloro-10-(5-chloro-2,4-difluorophenyl)-2,3-dihydro-5H-[1,4]thiazino[2,3,4-ij]quinazolin-5-one]",90
2,"C=CC(=O)N1CCN(c2nc(=O)n3c4c(c(-c5cc(Cl)c(F)cc5F)c(Cl)cc24)SC[C@@H]3CN2CCC3(CC2)COC3)[C@@H](C)C1 (atropisomer, axis not shown) [Example 483, (3S,10R)-3-((2-oxa-7-azaspiro[3.5]nonan-7-yl)methyl)-7-((S)-4-acryloyl-2-methylpiperazin-1-yl)-9-chloro-10-(5-chloro-2,4-difluorophenyl)-2,3-dihydro-5H-[1,4]thiazino[2,3,4-ij]quinazolin-5-one]",15.7
3,"C=CC(=O)N1C[C@H](C)N(c2nc(=O)n3c4c(c(-c5cc(F)c(F)cc5F)c(Cl)cc24)SC[C@@H]3CN2CCC3(CC2)COC3)C[C@H]1C (atropisomer, axis not shown) [Example 484, (3S,10S)-3-((2-oxa-7-azaspiro[3.5]nonan-7-yl)methyl)-7-((2S,5R)-4-acryloyl-2,5-dimethylpiperazin-1-yl)-9-chloro-10-(2,4,5-trifluorophenyl)-2,3-dihydro-5H-[1,4]thiazino[2,3,4-ij]quinazolin-5-one]",77.9
4,"C=CC(=O)N1C[C@H](C)N(c2nc(=O)n3c4c(c(-c5cc(F)c(F)cc5F)c(Cl)cc24)SC[C@@H]3CN2CCC3(CC2)COC3)C[C@H]1C (atropisomer, axis not shown) [Example 485, (3S,10R)-3-((2-oxa-7-azaspiro[3.5]nonan-7-yl)methyl)-7-((2S,5R)-4-acryloyl-2,5-dimethylpiperazin-1-yl)-9-chloro-10-(2,4,5-trifluorophenyl)-2,3-dihydro-5H-[1,4]thiazino[2,3,4-ij]quinazolin-5-one]",45
5,"C=CC(=O)N1C[C@H](C)N(c2nc(=O)n3c4c(c(-c5ccc(F)cc5F)c(C(F)(F)F)cc24)SC[C@@H]3COC)C[C@H]1C (atropisomer, axis not shown) [Example 508, (3S,10S)-7-((2S,5R)-4-acryloyl-2,5-dimethylpiperazin-1-yl)-10-(2,4-difluorophenyl)-3-(methoxymethyl)-9-(trifluoromethyl)-2,3-dihydro-5H-[1,4]thiazino[2,3,4-ij]quinazolin-5-one]",92
6,"C=CC(=O)N1C[C@H](C)N(c2nc(=O)n3c4c(c(-c5ccc(F)cc5F)c(C(F)(F)F)cc24)SC[C@@H]3COC)C[C@H]1C (atropisomer, axis not shown) [Example 509, (3S,10R)-7-((2S,5R)-4-acryloyl-2,5-dimethylpiperazin-1-yl)-10-(2,4-difluorophenyl)-3-(methoxymethyl)-9-(trifluoromethyl)-2,3-dihydro-5H-[1,4]thiazino[2,3,4-ij]quinazolin-5-one]",96.5
7,"C=CC(=O)N1C[C@H](C)N(c2nc(=O)n3c4c(c(-c5ccc(F)cc5F)c(C(F)(F)F)cc24)SC[C@@H]3COCCOC)C[C@H]1C (atropisomer, axis not shown) [Example 510, (3S,10S)-7-((2S,5R)-4-acryloyl-2,5-dimethylpiperazin-1-yl)-10-(2,4-difluorophenyl)-3-((2-methoxyethoxy)methyl)-9-(trifluoromethyl)-2,3-dihydro-5H-[1,4]thiazino[2,3,4-ij]quinazolin-5-one]",72.9
8,"C=CC(=O)N1C[C@H](C)N(c2nc(=O)n3c4c(c(-c5ccc(F)cc5F)c(C(F)(F)F)cc24)SC[C@@H]3COCCOC)C[C@H]1C (atropisomer, axis not shown) [Example 511, (3S,10R)-7-((2S,5R)-4-acryloyl-2,5-dimethylpiperazin-1-yl)-10-(2,4-difluorophenyl)-3-((2-methoxyethoxy)methyl)-9-(trifluoromethyl)-2,3-dihydro-5H-[1,4]thiazino[2,3,4-ij]quinazolin-5-one]",80.6
9,"C=CC(=O)N1C[C@H](C)N(c2nc(=O)n3c4c(c(-c5cc(Cl)c(F)cc5F)c(C(F)(F)F)cc24)SC[C@@H]3COC)C[C@H]1C (atropisomer, axis not shown) [Example 544, (3S,10S)-7-((2S,5R)-4-acryloyl-2,5-dimethylpiperazin-1-yl)-10-(5-chloro-2,4-difluorophenyl)-3-(methoxymethyl)-9-(trifluoromethyl)-2,3-dihydro-5H-[1,4]thiazino[2,3,4-ij]quinazolin-5-one]",48.8
10,"C=CC(=O)N1C[C@H](C)N(c2nc(=O)n3c4c(c(-c5cc(Cl)c(F)cc5F)c(C(F)(F)F)cc24)SC[C@@H]3COC)C[C@H]1C (atropisomer, axis not shown) [Example 545, (3S,10R)-7-((2S,5R)-4-acryloyl-2,5-dimethylpiperazin-1-yl)-10-(5-chloro-2,4-difluorophenyl)-3-(methoxymethyl)-9-(trifluoromethyl)-2,3-dihydro-5H-[1,4]thiazino[2,3,4-ij]quinazolin-5-one]",94.1
11,"C=CC(=O)N1[C@H](C)CN(c2nc(=O)n3c4c(c(-c5ccc(F)cc5F)c(C(F)(F)F)cc24)SC[C@@H]3COC)C[C@@H]1C (atropisomer, axis not shown) [Example 546, (3S,10S)-7-((3S,5R)-4-acryloyl-3,5-dimethylpiperazin-1-yl)-10-(2,4-difluorophenyl)-3-(methoxymethyl)-9-(trifluoromethyl)-2,3-dihydro-5H-[1,4]thiazino[2,3,4-ij]quinazolin-5-one]",94.3

# Same assay, conditions: 10 uM, 1 h; Table 3
row,Structure (SMILES),"% CAF @ 10 uM, 1h [%]"
1,"C=CC(=O)N1CCN(c2nc(=O)n3c4c(c(-c5cccc6cnn(C)c56)c(Cl)cc24)SCC3)[C@@H](C)C1 (atropisomer, axis not shown) [Example 107, (S)-7-((S)-4-acryloyl-2-methylpiperazin-1-yl)-9-chloro-10-(1-methyl-1H-indazol-7-yl)-2,3-dihydro-5H-[1,4]thiazino[2,3,4-ij]quinazolin-5-one]",0
2,"C=CC(=O)N1CCN(c2nc(=O)n3c4c(c(-c5cccc6cnn(C)c56)c(Cl)cc24)SCC3)[C@@H](C)C1 (atropisomer, axis not shown) [Example 108, (R)-7-((S)-4-acryloyl-2-methylpiperazin-1-yl)-9-chloro-10-(1-methyl-1H-indazol-7-yl)-2,3-dihydro-5H-[1,4]thiazino[2,3,4-ij]quinazolin-5-one]",91.7
3,"C=CC(=O)N1CCN(c2nc(=O)n3c4c(c(-c5ccccc5F)c(Cl)cc24)SCC3)[C@@H](C)C1 (atropisomer, axis not shown) [Example 123, (R)-7-((S)-4-acryloyl-2-methylpiperazin-1-yl)-9-chloro-10-(2-fluorophenyl)-2,3-dihydro-5H-[1,4]thiazino[2,3,4-ij]quinazolin-5-one]",91.3
4,"C=CC(=O)N1CCN(c2nc(=O)n3c4c(c(-c5ccccc5F)c(Cl)cc24)SCC3)[C@@H](C)C1 (atropisomer, axis not shown) [Example 124, (S)-7-((S)-4-acryloyl-2-methylpiperazin-1-yl)-9-chloro-10-(2-fluorophenyl)-2,3-dihydro-5H-[1,4]thiazino[2,3,4-ij]quinazolin-5-one]",96
5,"C=CC(=O)N1CCN(c2nc(=O)n3c4c(c(-c5cccc6ccccc56)c(Cl)cc24)SCC3)[C@@H](C)C1 (atropisomer, axis not shown) [Example 172, 7-((S)-4-acryloyl-2-methylpiperazin-1-yl)-9-chloro-10-(naphthalen-1-yl)-2,3-dihydro-5H-[1,4]thiazino[2,3,4-ij]quinazolin-5-one]",51.9
6,"C=CC(=O)N1C[C@H](C)N(c2nc(=O)n3c4c(c(-c5ccc(F)cc5F)c(Cl)cc24)S(=O)(=O)CC3)C[C@H]1C (atropisomer, axis not shown) [Example 177, (S)-7-((2S,5R)-4-acryloyl-2,5-dimethylpiperazin-1-yl)-9-chloro-10-(2,4-difluorophenyl)-2,3-dihydro-5H-[1,4]thiazino[2,3,4-ij]quinazolin-5-one 1,1-dioxide]",93.5
7,"C=CC(=O)N1C[C@H](C)N(c2nc(=O)n3c4c(c(-c5ccc(F)cc5F)c(Cl)cc24)S(=O)(=O)CC3)C[C@H]1C (atropisomer, axis not shown) [Example 178, (R)-7-((2S,5R)-4-acryloyl-2,5-dimethylpiperazin-1-yl)-9-chloro-10-(2,4-difluorophenyl)-2,3-dihydro-5H-[1,4]thiazino[2,3,4-ij]quinazolin-5-one 1,1-dioxide]",58.3
8,"C=CC(=O)N1CCN(c2nc(=O)n3c4c(c(-c5ccc(F)cc5F)c(Cl)cc24)SCC3)[C@@H](C)C1 (atropisomer, axis not shown) [Example 180, (R)-7-((S)-4-acryloyl-2-methylpiperazin-1-yl)-9-chloro-10-(2,4-difluorophenyl)-2,3-dihydro-5H-[1,4]thiazino[2,3,4-ij]quinazolin-5-one]",94.7
9,"C=CC(=O)N1C[C@H](C)N(c2nc(=O)n3c4c(c(-c5cccc6ccccc56)c(Cl)cc24)SCC3)C[C@H]1C (atropisomer, axis not shown) [Example 183, 7-((2S,5R)-4-acryloyl-2,5-dimethylpiperazin-1-yl)-9-chloro-10-(naphthalen-1-yl)-2,3-dihydro-5H-[1,4]thiazino[2,3,4-ij]quinazolin-5-one]",45.3
